From US20090047408A1, “Method for Improving Absorbability of Epigallocatechin Gallate, Foods, Drinks and Food/Drink Materials Using the Same and Method for Producing the Same” (ITO EN, LTD, priority 2005, published 2009)

What was measured:
Assay type in all cases: in vivo
[1] = Absorbability of EGCg in humans: blood EGCg level after drinking drinks A to C (chemiluminescence-HPLC)
Method: Caffeine formulation (manufactured by […] Pharmaceutical Co., Ltd.), EGCg formulation (content of EGCg: 90% or more, trade name: Teavigo, manufactured by DSM Nutritional Products), ascorbic acid and citric acid were added in the amounts shown in Table 2, respectively, to 190 ml of water, which were dissolved. Thereafter, each of the resulting mixtures was poured into a can, respectively, which was sealed and sterilized by heat and then drinks A to C were prepared. […] Each of subjects drank one of the drinks […] minutes after the drinking was measured by chemiluminescence-HPLC. The measurement was subjected in three subjects for each drink. The relationship between the C/E ratio and the blood EGCg level is graphically represented in accordance with Table 2, which is shown as FIG. 2. According to Table 2, the blood EGCg level of subjects is the highest in the case that the drink B having the C/E ratio of 0.4 has been taken by the subjects, and the blood EGCg level falls in either case where the C/E ratio is lower or higher than that.

[2] = Changes in blood concentration over time of orally ingested EGCg and caffeine in humans; details: oral ingestion
[3] = Absorbability of EGCg in rats: blood EGCg level after oral administration of caffeine and EGCg solutions (chemiluminescence-HPLC); details: average of six rats
Method: Teavigo, manufactured by DSM Nutritional Products) in 1 ml of water were prepared. In accordance with Experimental plots 1 to 7 shown in Table 1, the solution of caffeine and the solution of EGCg were orally administered to rats. After 60 minutes from the administration, the blood EGCG level in rats was measured by chemiluminescence-HPLC. The measurement was subjected by using six rats for each Experimental plot. The relationship between the C/E ratio and the blood EGCg level is graphically represented in accordance with Table 1, which is shown as FIG. 1. […] When the C/E ratio is lower or higher than that, the blood EGCg level is reduced.

Compound | Absorbability of EGCg relative to EGCg alone ([1]; C/E ratio 0.18 to 0.70) [times] | Absorbability of EGCg relative to normal green tea infusion ([1]; C/E ratio 0.18 to 0.70) [times] | Absorbability of EGCg relative to EGCg alone ([1]; C/E ratio 0.20 to 0.60) [times] | Absorbability of EGCg relative to normal green tea infusion ([1]; C/E ratio 0.20 to 0.60) [times] | Increase of absorbability of EGCg relative to normal tea ([1]; optimized C/E ratio, maximum) | Time at which blood concentration reaches a maximum value [2] | Blood EGCg level ([3]; Exp. plot 1: rats, caffeine 0 mg + EGCg 30 mg, C/E ratio 0, 60 minutes after administration) [pmol/mL] | Blood EGCg level ([3]; Exp. plot 2: rats, caffeine 3 mg + EGCg 30 mg, C/E ratio 0.1, 60 minutes after administration) [pmol/mL] | Blood EGCg level ([3]; Exp. plot 3: rats, caffeine 6 mg + EGCg 30 mg, C/E ratio 0.2, 60 minutes after administration) [pmol/mL] | Blood EGCg level ([3]; Exp. plot 4: rats, caffeine 15 mg + EGCg 30 mg, C/E ratio 0.5, 60 minutes after administration) [pmol/mL] | Blood EGCg level ([3]; Exp. plot 5: rats, caffeine 30 mg + EGCg 30 mg, C/E ratio 1.0, 60 minutes after administration) [pmol/mL] | Blood EGCg level ([3]; Exp. plot 6: rats, caffeine 45 mg + EGCg 30 mg, C/E ratio 1.5, 60 minutes after administration) [pmol/mL] | Blood EGCg level ([3]; Exp. plot 7: rats, caffeine 65 mg + EGCg 30 mg, C/E ratio 2.2, 60 minutes after administration) [pmol/mL]
O=C(O[C@@H]1Cc2c(O)cc(O)cc2O[C@@H]1c1cc(O)c(O)c(O)c1)c1cc(O)c(O)c(O)c1 [EGCg, epigallocatechin gallate] | ≥ 1.7 | ≥ 1.1 | ≥ 1.75 | ≥ 1.15 | up to 1.2 times | about 1.5 hours | 229 | 243 | 270 | 221 | 153 | 90 | 94
Cn1c(=O)c2c(ncn2C)n(C)c1=O [caffeine, reference compound] |  |  |  |  |  | about 1.5 hours |  |  |  |  |  |  | 
